Patent US8530421B2, “Isolated polypeptides used for treatment of inflammatory diseases and inhibiting cancer metastasis” (Supadelixir Inc., priority 2009, dated 2013)

Test system: IgE-mediated immediate hypersensitivity reaction-induced mice
Assay: IgE-mediated immediate hypersensitivity reaction, ear thickness
Format: in vivo, Balb/c mice
Settings: 100 μg tail vein, then 100 μg intraperitoneally daily from third day; DNFB antigen; 15 days
Method: Anti-allergic activity of the polypeptide according to the present invention was investigated. Balb/c mice (about 6 weeks old) were sensitized by injecting IgE antibody (5 μg) through the tail vain thereof. After 24 hours, the protein solution (100 μl) prepared by dissolving the peptide fragment of SEQ ID NO: 13 (100 μg) in PBS (100 μl) was injected through the tail vain of the sensitized mice. A 0.15% DNFB solution [2,4-d]nitrofluorobenzene in aceton: olive oil (4:1)] as an antigen was applied on each ear of the mice so as to induce IgE-mediated immediate hypersensitivity. In case of the negative control mice, only PBS (100 μl) was injected without treating a 0.15% DNFB solution. In case of the positive control mice, PBS (100 μl) was injected and then a 0.15% DNFB solution was treated. The changes in ear thickness were measured with a digital caliper every hour for 12 hours. Every day from the third day, the peptide fragment of SEQ ID NO: 13 (100 μg) was intraperitoneally injected to the test group mice, while only PBS was intraperitoneally injected to the control group mice. The changes in ear thickness were measured for 15 days.
FIG. 12 is the graph obtained by comparing the ear thickness changes of the test group mice and the positive control mice (increased by treating a 0.15% DNFB solution) with those of the negative control.

SEQ ID NO: 13: Leu-Xaa-Asp with Xaa Ala; CD99L2 fragment 121~123, PBDX(or XG) fragment 27~29 (LAD; listed as Homo sapiens)
ear thickness increments relative to the positive control group: remarkably decreased
